# Assay results published in PubChem BioAssay (NCI).
#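 These data come from cells grown in 96-well plates and exposed to compound for 48 hours at five concentrations. At the TGI there is no net growth.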
# How the values were obtained:
# Assay in all cases: NCI anticancer screen, dose series, 48 h
# NCI-H460 lung = system: NCI-H460 lung
# SNB-19 CNS = system: SNB-19 CNS
# SN12C renal = system: SN12C renal
# NCI-H226 lung = system: NCI-H226 lung
# A549 NSCLC = system: A549 NSCLC
# SF-295 CNS = system: SF-295 CNS
# KM12 colon = system: KM12 colon
# SW-620 colon = system: SW-620 colon
# HOP-92 NSCLC = system: HOP-92 NSCLC
# 786-0 renal = system: 786-0 renal
# CCRF-CEM leukemia = system: CCRF-CEM leukemia
# DU-145 prostate = system: DU-145 prostate
# MDA-N = system: MDA-N
# OVCAR-4 ovarian = system: OVCAR-4 ovarian
# HS 578T breast = system: HS 578T breast
# MDA-MB-435 = system: MDA-MB-435
# HCC-2998 colon = system: HCC-2998 colon
# NCI/ADR-RES ovarian = system: NCI/ADR-RES ovarian
# UO-31 renal = system: UO-31 renal
# HT29 colon = system: HT29 colon
# HCT-15 colon = system: HCT-15 colon
# ACHN renal = system: ACHN renal
# BT-549 breast = system: BT-549 breast
# SR leukemia = system: SR leukemia
# M14 melanoma = system: M14 melanoma
# NCI-H522 lung = system: NCI-H522 lung
# TK-10 renal = system: TK-10 renal
# MALME-3M melanoma = system: MALME-3M melanoma
# NCI-H23 lung = system: NCI-H23 lung
# SK-MEL-5 melanoma = system: SK-MEL-5 melanoma
# OVCAR-8 ovarian = system: OVCAR-8 ovarian
# MCF7 breast = system: MCF7 breast
# UACC-62 melanoma = system: UACC-62 melanoma
# RPMI-8226 leukemia = system: RPMI-8226 leukemia
# SF-539 CNS = system: SF-539 CNS
# LOX IMVI melanoma = system: LOX IMVI melanoma
# OVCAR-5 ovarian = system: OVCAR-5 ovarian
# SK-MEL-2 melanoma = system: SK-MEL-2 melanoma
# SK-MEL-28 melanoma = system: SK-MEL-28 melanoma
# RXF 393 renal = system: RXF 393 renal
# PC-3 prostate = system: PC-3 prostate
# OVCAR-3 ovarian = system: OVCAR-3 ovarian
# A498 renal = system: A498 renal
# UACC-257 melanoma = system: UACC-257 melanoma
# EKVX NSCLC = system: EKVX NSCLC
# SNB-75 CNS = system: SNB-75 CNS
# K-562 leukemia = system: K-562 leukemia
# U251 CNS = system: U251 CNS
# T-47D breast = system: T-47D breast
# COLO 205 colon = system: COLO 205 colon
# CAKI-1 renal = system: CAKI-1 renal
# IGROV1 ovarian = system: IGROV1 ovarian
# HOP-62 NSCLC = system: HOP-62 NSCLC
# HL-60(TB) leukemia = system: HL-60(TB) leukemia
# HCT-116 colon = system: HCT-116 colon
# SF-268 CNS = system: SF-268 CNS
structure (smiles),measurement,setting,value
S=C(N/N=C/c1ccccn1)N1CCCCCC1,TGI,NCI-H460 lung,0.211 µM
same,TGI,SNB-19 CNS,> 100 µM
same,TGI,SN12C renal,0.359 µM
same,TGI,NCI-H226 lung,1940 nM
same,TGI,A549 NSCLC,29.1 µM
same,TGI,SF-295 CNS,> 100 µM
same,TGI,KM12 colon,63.3 µM
same,TGI,SW-620 colon,> 100 µM
same,TGI,HOP-92 NSCLC,> 100 µM
same,TGI,786-0 renal,1.22 µM
same,TGI,CCRF-CEM leukemia,0.393 µM
same,TGI,DU-145 prostate,> 100 µM
same,TGI,MDA-N,> 48.9 µM
same,TGI,OVCAR-4 ovarian,37 µM
same,TGI,HS 578T breast,> 100 µM
same,TGI,MDA-MB-435,96.8 µM
same,TGI,HCC-2998 colon,> 38.1 µM
same,TGI,NCI/ADR-RES ovarian,0.105 µM
same,TGI,UO-31 renal,4.76 µM
same,TGI,HT29 colon,> 44.2 µM
same,TGI,HCT-15 colon,> 33.5 µM
same,TGI,ACHN renal,1530 nM
same,TGI,BT-549 breast,22.6 µM
same,TGI,SR leukemia,0.93 µM
same,TGI,M14 melanoma,0.251 µM
same,TGI,NCI-H522 lung,5.9 µM
same,TGI,TK-10 renal,38 µM
same,TGI,MALME-3M melanoma,42.4 µM
same,TGI,NCI-H23 lung,> 58.6 µM
same,TGI,SK-MEL-5 melanoma,1.18 µM
same,TGI,OVCAR-8 ovarian,12.7 µM
same,TGI,MCF7 breast,25.3 µM
same,TGI,UACC-62 melanoma,0.364 µM
same,TGI,RPMI-8226 leukemia,0.491 µM
same,TGI,SF-539 CNS,0.305 µM
same,TGI,LOX IMVI melanoma,64.1 µM
same,TGI,OVCAR-5 ovarian,> 54.2 µM
same,TGI,SK-MEL-2 melanoma,24.8 µM
same,TGI,SK-MEL-28 melanoma,> 100 µM
same,TGI,RXF 393 renal,5.01 µM
same,TGI,PC-3 prostate,> 100 µM
same,TGI,OVCAR-3 ovarian,9.3 µM
same,TGI,A498 renal,0.735 µM
same,TGI,UACC-257 melanoma,0.169 µM
same,TGI,EKVX NSCLC,4.04 µM
same,TGI,SNB-75 CNS,0.987 µM
same,TGI,K-562 leukemia,> 100 µM
COc1ccccc1C1c2cc3c(cc2OC(N2CCCC2)C1C)OCO3 (configuration not stated),TGI,NCI-H460 lung,40.9 µM
same,TGI,U251 CNS,39.1 µM
same,TGI,T-47D breast,25.5 µM
same,TGI,SNB-19 CNS,47.9 µM
same,TGI,SN12C renal,39.7 µM
same,TGI,COLO 205 colon,35.6 µM
same,TGI,A549 NSCLC,46 µM
same,TGI,SF-295 CNS,39.3 µM
same,TGI,KM12 colon,39.5 µM
same,TGI,SW-620 colon,44.7 µM
same,TGI,HOP-92 NSCLC,20.6 µM
same,TGI,786-0 renal,35.3 µM
same,TGI,CCRF-CEM leukemia,47.8 µM
same,TGI,DU-145 prostate,26.9 µM
same,TGI,MDA-N,28.9 µM
same,TGI,OVCAR-4 ovarian,70.5 µM
same,TGI,CAKI-1 renal,31.4 µM
same,TGI,HS 578T breast,30 µM
same,TGI,MDA-MB-435,34.2 µM
same,TGI,HCC-2998 colon,32.9 µM
same,TGI,NCI/ADR-RES ovarian,53.7 µM
same,TGI,UO-31 renal,33 µM
same,TGI,HT29 colon,39.5 µM
same,TGI,IGROV1 ovarian,51.5 µM
same,TGI,HCT-15 colon,44.6 µM
same,TGI,ACHN renal,> 57500 nM
same,TGI,BT-549 breast,48 µM
same,TGI,SR leukemia,31.1 µM
same,TGI,M14 melanoma,30.1 µM
same,TGI,NCI-H522 lung,42.1 µM
same,TGI,TK-10 renal,47.9 µM
same,TGI,HOP-62 NSCLC,29.4 µM
same,TGI,MALME-3M melanoma,43.2 µM
same,TGI,NCI-H23 lung,> 31.6 µM
same,TGI,SK-MEL-5 melanoma,29.4 µM
same,TGI,OVCAR-8 ovarian,64 µM
same,TGI,MCF7 breast,39.4 µM
same,TGI,UACC-62 melanoma,38.4 µM
same,TGI,RPMI-8226 leukemia,38.8 µM
same,TGI,SF-539 CNS,31.7 µM
same,TGI,HL-60(TB) leukemia,49 µM
same,TGI,LOX IMVI melanoma,38.1 µM
same,TGI,OVCAR-5 ovarian,41.1 µM
same,TGI,SK-MEL-2 melanoma,29.8 µM
same,TGI,HCT-116 colon,29.1 µM
same,TGI,SF-268 CNS,30.9 µM
same,TGI,SK-MEL-28 melanoma,48 µM
same,TGI,RXF 393 renal,36.9 µM
same,TGI,PC-3 prostate,32.4 µM
same,TGI,OVCAR-3 ovarian,32.4 µM
same,TGI,A498 renal,30.3 µM
same,TGI,UACC-257 melanoma,48.1 µM
same,TGI,EKVX NSCLC,50.6 µM
same,TGI,SNB-75 CNS,27.3 µM
same,TGI,K-562 leukemia,> 53.3 µM
